Where no end group is shown, it is not given here.
Tests used:
[1] = tested on: Female C57Bl6/J mice; experiment: Intraperitoneal glucose tolerance test, inhibition of exogenous GIP; type: in vivo, mouse
Description: To assess the biological activity of mGIPAnt‐1, we performed an intraperitoneal glucose tolerance test. Mice were fasted for 4 h and given either mGIPAnt‐1 ([…]; s.c.) or vehicle at t = −90 min. Group sizes were as follows:‐ Vehicle + Vehicle, n = 10, Vehicle + GIP, n = 12 and mGIPAnt‐1 + GIP, n = 8. Varying group numbers were due to unsuccessful administration of one of the four compounds as confirmed by measurements of plasma concentrations. At t = −10 all mice were given an intraperitoneal (i.p.) injection with dipeptidyl peptidase‐4 (DPP‐4) inhibitor valine pyrrolidide followed by s.c. injection of either 25 nmol·kg^−1 GIP (Synthetic mouse GIP(1‐42) or vehicle. At t = 0 min, mice received an i.p. injection with 0.5‐g·kg^−1 glucose. Blood glucose was measured from the tail vein using a hand‐held glucometer (Accu‐Chek Mobile, Roche, Basel, Switzerland) at t = 0, 10, 30, 45, 60, 120 and 180 min. Retro‐orbital blood samples (50 μl) were taken using EDTA coated glass capillaries (Vitrex, Vasekær, Denmark) at t = 0, 15, 30 and 60, 120 and 180 min and centrifuged at 3500g, 20 min, 4°C. Plasma was transferred into Eppendorf tubes on dry ice and stored at −20°C for later insulin measurements.
(§1) To facilitate comparisons of assay outputs (cAMP assays), the results (of duplicate measurements) were normalized, with the response to 10 pM of GIP(1‐42) set as 100%. All ligand concentrations are reported as log‐transformed. The IC50 log values can be found in Figure 1. In Figure 3c, we have subtracted glucose levels from baseline to show the net differences in glucose levels in our different treatment groups.

[2] = target: T1, mouse GLP‐2 receptor (Mus musculus, UniProt Q5IXF8); experiment: cAMP accumulation, agonism in transfected COS‐7 cells; type: cell-based; conditions: increasing concentrations, COS‐7, n = 5
T1 construct: host or cells: COS-7
T1 sequence (Q5IXF8 1-512): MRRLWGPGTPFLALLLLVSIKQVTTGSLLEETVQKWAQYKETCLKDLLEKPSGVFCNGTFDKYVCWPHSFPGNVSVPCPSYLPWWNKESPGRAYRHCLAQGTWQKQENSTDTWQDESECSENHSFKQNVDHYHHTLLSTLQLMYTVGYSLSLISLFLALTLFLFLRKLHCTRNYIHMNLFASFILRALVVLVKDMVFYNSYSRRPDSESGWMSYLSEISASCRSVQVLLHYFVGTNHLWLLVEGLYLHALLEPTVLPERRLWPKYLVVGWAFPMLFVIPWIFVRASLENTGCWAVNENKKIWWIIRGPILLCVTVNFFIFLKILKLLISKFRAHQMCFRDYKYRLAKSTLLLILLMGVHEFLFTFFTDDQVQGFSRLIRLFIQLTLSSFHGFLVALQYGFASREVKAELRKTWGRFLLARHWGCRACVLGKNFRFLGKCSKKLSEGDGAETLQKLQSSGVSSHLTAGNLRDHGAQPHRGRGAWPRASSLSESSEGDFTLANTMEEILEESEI
Description: (§2) COS‐7 cells were cultured at 10% CO2 and 37°C in Dulbecco's Modified Eagle Medium 1885 supplemented with 10% foetal bovine serum, 2‐mM glutamine, 180‐units ml^−1 penicillin and […] streptomycin. Transient transfection of the cells with either human or mouse GIP receptor was performed using the calcium phosphate precipitation method as previously described (van der Velden et al., [2021]). A second set of cells was transiently transfected with either mouse GLP‐1 or GLP‐2 receptor. Following the day after transfection, the cells were seeded in white 96‐well plates with a density of 35.000 cells per well. The next day the assay was initiated by washing the cells with HEPES buffered saline (HBS) followed by an incubation step with HBS and 1‐mM 3‐isobutyl‐1‐methylxanthine for 30 min at 37°C. For agonist studies, the ligands were then added and incubated for an additional 30 min at 37°C. To test for antagonistic properties, the cells were first preincubated for 10 min with the antagonist with subsequent addition of the agonist and incubated for an additional 20 min. The HitHunter® cAMP assay (Eurofins DiscoverX, Fremont, USA) was carried out according to the manufacturer's protocol. Luminescence was measured by PerkinElmer™ Envision 2014 Multilabel Reader.
FIGURE 2 In vitro signalling profile of mGIPAnt‐1 on the mouse GLP‐1 and GLP‐2 receptor (R). […]

[3] = target: T2, mouse GIP receptor (Mus musculus, UniProt Q0P543); experiment: cAMP accumulation, antagonism of mouse GIP(1‐42) in transfected COS‐7 cells; type: cell-based; conditions: COS‐7 transiently transfected with mouse GIPR; 10 min preincubation with antagonist, then mouse GIP(1‐42) at 50%–80% of Emax for 20 min; HitHunter cAMP; Hill slope −1.0; n = 5 independent experiments; read-out: IC50, inhibition of mGIP‐induced cAMP accumulation, mouse GIPR
T2 construct: host or cells: COS-7
T2 sequence (Q0P543 19-460): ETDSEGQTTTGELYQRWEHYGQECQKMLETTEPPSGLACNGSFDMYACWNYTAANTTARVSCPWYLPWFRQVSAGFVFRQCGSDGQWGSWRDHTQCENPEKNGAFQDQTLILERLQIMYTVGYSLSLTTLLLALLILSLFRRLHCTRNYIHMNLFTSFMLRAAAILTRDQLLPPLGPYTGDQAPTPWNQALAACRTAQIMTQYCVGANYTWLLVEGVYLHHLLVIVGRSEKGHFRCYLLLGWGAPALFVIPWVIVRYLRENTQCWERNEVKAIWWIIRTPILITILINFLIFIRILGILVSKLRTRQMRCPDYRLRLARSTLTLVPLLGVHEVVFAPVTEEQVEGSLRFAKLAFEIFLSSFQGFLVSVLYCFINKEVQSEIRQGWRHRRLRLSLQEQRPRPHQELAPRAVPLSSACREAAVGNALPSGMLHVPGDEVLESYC
Description: as §2
as §1, with “groups. […]” for “groups.”
Results are presented as mean ± SE. Data were analysed with one‐way and two‐way analysis of variance (ANOVA) with Tukey's or Sidak multiple comparisons test and Student's unpaired t tests where appropriate. […] For the in vitro data IC50 values were determined by nonlinear regression using GraphPad Prism 9 (San Diego, California, USA). […]

[4] = target: T2, mouse GIP receptor; experiment: cAMP accumulation, agonism (intrinsic activity) in transfected COS‐7 cells; type: cell-based; conditions: increasing concentrations of ligand alone, 30 min, COS‐7, n = 5
Description: as §2, §1
FIGURE 1 In vitro signalling profile of mGIPAnt‐1 on the mouse and human glucose‐dependent insulinotropic polypeptide receptor/(GIPR). COS‐7 cells were transiently transfected with (a) mouse GIPR or (b) human GIPR and assayed for cAMP accumulation. To test for agonism, increasing concentration of the ligand was added. […]

[5] = target: T3, human GIP receptor (Homo sapiens, UniProt P48546); conditions: previously shown, [2016], cited from earlier work
T3 construct: host or cells: COS-7
T3 sequence (P48546 22-466): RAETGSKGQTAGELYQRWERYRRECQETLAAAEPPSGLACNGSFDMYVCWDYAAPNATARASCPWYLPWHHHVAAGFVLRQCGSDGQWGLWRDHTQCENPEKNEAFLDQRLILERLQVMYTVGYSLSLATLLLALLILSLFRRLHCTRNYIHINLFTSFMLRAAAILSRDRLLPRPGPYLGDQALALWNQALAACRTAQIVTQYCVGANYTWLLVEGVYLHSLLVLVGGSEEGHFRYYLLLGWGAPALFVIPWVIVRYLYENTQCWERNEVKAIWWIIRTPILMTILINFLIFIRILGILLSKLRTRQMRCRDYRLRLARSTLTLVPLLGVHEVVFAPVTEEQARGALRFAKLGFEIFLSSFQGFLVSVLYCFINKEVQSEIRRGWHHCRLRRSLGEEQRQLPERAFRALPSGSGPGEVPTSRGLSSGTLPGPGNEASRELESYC
Description: The antagonistic properties of mGIPAnt‐1 were determined in vitro in cAMP accumulation before initiation of the in vivo studies in comparison to the naturally occurring […] GIP(3‐30)NH2. The experiments were done on both the human and mouse GIP receptor to examine the translatability between species. To keep the experiments species specific, mGIPAnt‐1 was compared to mouse GIP(3‐30)NH2 (mGIP(3‐30)NH2) on the mouse GIP receptor and human GIP(3‐30)NH2 (hGIP(3‐30)NH2) on the human GIP receptor. We also determined whether mGIPAnt‐1 had any intrinsic activity. Here we observed no activation of the ...

For “Synthetic mouse GIP(1‐42) (YAEGTFISDYSIAMDKIRQQDFVNWLLAQRGKKSDWKHNITQ; Gastric inhibitory polypeptide; UniProt P48756 44-85, looked up) [reference compound]”, the “baseline‐subtracted glucose curve during IPGTT” value ([1]; mGIPAnt‐1 25 μmol·kg−1 s.c. t = −90 min, GIP 25 nmol·kg−1 s.c. and val‐pyr t = −10 min, glucose 0.5 g·kg−1 i.p., n = 8–12) was “lowered glucose levels significantly from t = 45 min and onwards”, the “glucose levels relative to baseline late in IPGTT” value ([1]; t = 120 and 180 min, same dosing as glucose curve) was “glucose levels dropped significantly below baseline at t = 120 and t = 180 min” and the “incremental area under the glucose curve (iAUC), IPGTT” value ([1]; vehicle + GIP 25 nmol·kg−1 versus vehicle + vehicle and versus mGIPAnt‐1 + GIP) was “significantly different”.

In the case of “mGLP‐2: mouse GLP‐2, control agonist at the mouse GLP‐2 receptor (HADGSFSDEMSTILDNLATRDFINWLIQTKITD; Glucagon-like peptide 2; UniProt P55095 146-178, looked up) [reference compound]”, the “activation of mouse GLP‐2 receptor (cAMP)” value [2] is reported as “shown to activate their receptors”.

With `CC[C@H](C)[C@H](NC(=O)[C@H](CO)NC(=O)[C@H](Cc1ccc(O)cc1)NC(=O)[C@H](CC(=O)O)NC(=O)[C@H](CO)NC(=O)[C@@H](NC(=O)[C@H](Cc1ccccc1)NC(=O)[C@@H](NC(=O)CNC(=O)[C@@H](N)CCC(=O)O)[C@@H](C)O)[C@@H](C)CC)C(=O)N[C@@H](C)C(=O)N[C@@H](CCSC)C(=O)N[C@@H](CC(=O)O)C(=O)N[C@@H](CCCCN)C(=O)N[C@H](C(=O)N[C@@H](CCCNC(=N)N)C(=O)N[C@@H](CCC(N)=O)C(=O)N[C@@H](CCC(N)=O)C(=O)N[C@@H](CC(=O)O)C(=O)N[C@@H](Cc1ccccc1)C(=O)N[C@H](C(=O)N[C@@H](CC(N)=O)C(=O)N[C@@H](Cc1c[nH]c2ccccc12)C(=O)N[C@@H](CC(C)C)C(=O)N[C@@H](CC(C)C)C(=O)N[C@@H](C)C(=O)N[C@@H](CCC(N)=O)C(=O)N[C@@H](CCCNC(=N)N)C(N)=O)C(C)C)[C@@H](C)CC` [mGIP(3‐30)NH2, mouse GIP(3‐30)NH2, reference compound] the IC50 [3] was 813 nM and the “intrinsic activity (activation of mouse GIP receptor, cAMP)” value [4] was “neither did mGIP(3‐30)NH2 activate”.

For “human GIP(3‐30)NH2 (EGTFISDYSIAMDKIHQQDFVNWLLAQK-NH2; UniProt P09681 54-81, looked up, fragment) [hGIP(3‐30)NH2]”, the “intrinsic activity (activation of human GIP receptor)” value ([5]; ref Gabe et al., [2018], Gasbjerg et al., [2017], Hansen et al.) is listed as “no activation” and the IC50 ([5]; ref Hansen et al., read-out: IC50, antagonism of human GIPR) is listed as 12 nM.
